Measurements published in patent US20260116845A1, “LIPIDS AND COMPOSITIONS THEREOF” (Kernal Biologics, Inc., priority 2023, published 2026).

How the values were obtained:
[1] = tested on: B16F10 Cell Line; experiment: Transfection of B16F10 Cell Line with FLuc mRNA LNPs (ONE-Glo EX luciferase signal); type: cell-based; settings: 200 ng Fluc mRNA-LNP, 24 hours
Summary of the method: (§1)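 LNPs (ionizable/structural/helper/PEG lipids, microfluidic mixing, mRNA quantified by RiboGreen) pre-incubated 30 min with mouse serum, then added at 200 ng mRNA per well in Opti-MEM to B16F10, MC38.K (5,000 cells/well) or AML12 (20,000 cells/well). Luminescence read after 24 h transfection.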

[2] = tested on: AML12 Cell Line; experiment: Transfection of AML12 Cell Line with FLuc mRNA LNPs (ONE-Glo EX luciferase signal); type: cell-based; settings: 200 ng Fluc mRNA-LNP, 24 hours
Summary of the method: as §1

[3] = tested on: MC38.K Cell Line; experiment: Transfection of MC38.K Cell Line with FLuc mRNA LNPs (ONE-Glo EX luciferase signal); type: cell-based; settings: 200 ng Fluc mRNA-LNP, 24 hours; for Total Luciferin Signal (RLU) In Vitro - MC38.K: Table 4; for Total Luciferin Signal (RLU) In Vitro-MC38: Table 5
Summary of the method: as §1

[4] = tested on: Liver; experiment: Ex-vivo luminescence signal from liver after IV Fluc mRNA LNPs in CD1 mice (IVIS); settings: tail vein 1.0 mg/kg Day 0 and Day 2, imaging 18 hours after second dose; for Total Liver Tissue Luciferin Signal (Photons/s) Ex-vivo - CD1: Table 4; for Total Liver Tissue Luciferin Signal (Photons/s) In Vivo-Cd1: Table 5
[5] = tested on: Spleen; experiment: Ex-vivo luminescence signal from spleen after IV Fluc mRNA LNPs in CD1 mice (IVIS); settings: tail vein 1.0 mg/kg Day 0 and Day 2, imaging 18 hours after second dose, Table 5

Compound	Total Luciferin Signal (RLU) In Vitro - B16F10 ([1]; Table 4) [RLU]	Total Luciferin Signal (RLU) In Vitro - AML12 ([2]; Table 4) [RLU]	Total Luciferin Signal (RLU) In Vitro - MC38.K [3] [RLU]	Total Liver Tissue Luciferin Signal (Photons/s) Ex-vivo - CD1 [4] [Photons/s]	Total Luciferin Signal (RLU) In Vitro - B16F10 ([1]; Table 5) [RLU]	Total Spleen Tissue Luciferin Signal (Photons/s) In Vivo-Cd1 [5] [Photons/s]	Total Luciferin Signal (RLU) In Vitro - AML12 ([2]; Table 5) [RLU]	Total Liver Tissue Luciferin Signal (Photons/s) In Vivo-Cd1 [4] [Photons/s]	Total Luciferin Signal (RLU) In Vitro-MC38 [3] [RLU]
CCCCCCCCCOC(=O)C(C)CCCCCCN(CCO)CCCCCCCC(=O)OC(CCCCCCCC)CCCCCCCCF (stereo not drawn) [Compound 61, nonyl 8-((8-((1-fluoroheptadecan-9-yl)oxy)-8-oxooctyl)(2-hydroxyethyl)amino)-2-methyloctanoate]	9.46E+05	8.13E+05	1.11E+07	1.38E+10					
CCCCCCCCCOC(=O)C(C)CCCCCCN(CCCCO)CCCCCCCC(=O)OC(CCCCCCCC)CCCCCCCC (stereo not drawn) [Compound 62, nonyl 8-((8-(heptadecan-9-yloxy)-8-oxooctyl)(4-hydroxybutyl)amino)-2-methyloctanoate]	2.73E+06	2.33E+06	3.47E+07	1.03E+10					
CCCCCCCCC(CCCCCCCCF)OC(=O)CCCCCN(CCCCO)CCCCCC(=O)OCCCCCCCCCCC(C)C (stereo not drawn) [Compound 63, 1-fluoroheptadecan-9-yl 6-((4-hydroxybutyl)(6-((11-methyldodecyl)oxy)-6-oxohexyl)amino)hexanoate]	6.91E+05	5.69E+05	1.35E+07	3.02E+09					
CCCCCCCCC(CCCCCCCCF)OC(=O)CCCCCN(CCCCO)CCCCC(C)C(=O)OCCCCCCCCCCC(C)C (stereo not drawn) [Compound 64, 11-methyldodecyl 6-((6-((1-fluoroheptadecan-9-yl)oxy)-6-oxohexyl)(4-hydroxybutyl)amino)-2-methylhexanoate]	1.10E+06	1.02E+06	2.41E+07	4.39E+09					
CCCCCCCCC(CCCCCCCCF)OC(=O)CCCCCN(CCO)CCCCC(C)C(=O)OCCCCCCCCCCC(C)C (stereo not drawn) [Compound 65, 11-methyldodecyl 6-((6-((1-fluoroheptadecan-9-yl)oxy)-6-oxohexyl)(2-hydroxyethyl)amino)-2-methylhexanoate]	3.78E+05	3.24E+05	3.81E+06	4.01E+09					
CCCCCCCCC(CCCCCCCCF)OC(=O)CCCCCCCN(CCO)CCCCCCC(C)C(=O)OCCCCCCCCC(C)C (stereo not drawn) [Compound 66, 9-methyldecyl 8-((8-((1-fluoroheptadecan-9-yl)oxy)-8-oxooctyl)(2-hydroxyethyl)amino)-2-methyloctanoate]	1.12E+06	1.16E+06	5.75E+06	9.44E+09					
CCCCCCCCC(CCCCCCCCF)C(=O)OCCCCCCCN(CCCCO)CCCCCCCOC(=O)CCCCCCCCC(C)C (stereo not drawn) [Compound 69, 7-((7-((10-fluoro-2-octyldecanoyl)oxy)heptyl)(4-hydroxybutyl)amino)heptyl 10-methylundecanoate]	3.62E+06	8.05E+06	4.67E+07	4.64E+09					
CCCCCCCCC(CCCCCCCCF)OC(=O)CCCCCN(CCO)CCCCCC(=O)OCCCCCCCCCCC(C)C (stereo not drawn) [Compound 70, 1-fluoroheptadecan-9-yl 6-((2-hydroxyethyl)(6-((11-methyldodecyl)oxy)-6-oxohexyl)amino)hexanoate]	7.68E+05	7.41E+05	5.15E+06	4.87E+09					
CCCCCCCCCOC(=O)CCCCCCCN(CCCCO)CCCCCCCC(=O)OCC(CCCCCC)CCCCCCCCF (stereo not drawn) [Compound 71, 10-fluoro-2-hexyldecyl 8-((4-hydroxybutyl)(8-(nonyloxy)-8-oxooctyl)amino)octanoate]	1.67E+06	4.77E+06	1.57E+07	1.75E+09					
CCCCCCCCCOC(=O)CCCCCCCN(CCO)CCCCCCCC(=O)OCC(CCCCCC)CCCCCCCCF (stereo not drawn) [Compound 72, 10-fluoro-2-hexyldecyl 8-((2-hydroxyethyl)(8-(nonyloxy)-8-oxooctyl)amino)octanoate]	7.23E+05	2.78E+06	5.53E+06	3.60E+09					
CCCCCCCCCCCCC1CN(CCO)CC(CCCCCCCCCCCC)O1 (stereo not drawn) [Compound 90, 2-(2,6-didodecylmorpholino)ethan-1-ol]					8.93E+04	5.69E+05	2.69E+04	3.35E+06	
CCCCCCCC/C=C\CCCCCCC1CN(CCO)CC(CCCCCCCCCCCC)O1 (stereo not drawn) [Compound 91, (Z)-2-(2-dodecyl-6-(hexadec-7-en-1-yl)morpholino)ethan-1-ol]					2.02E+05	1.44E+06	1.94E+04	3.65E+06	
CCCCCCCC/C=C\CCCCCCC1CN(CCO)CC(CCCCCC/C=C\CCCCCCCC)O1 (stereo not drawn) [Compound 92, 2-(2,6-di((Z)-hexadec-7-en-1-yl)morpholino)ethan-1-ol]					8.03E+05	2.05E+06	2.46E+04	1.07E+07	
CCCCCCCC/C=C\CCCCCCC1CN(CCOC(=O)CCCN(C)C)CC(CCCCCC/C=C\CCCCCCCC)O1 (stereo not drawn) [Compound 93, 2-{2,6-bis[(Z)-7-hexadecenyl]-4-morpholinyl}ethyl 4-(dimethylamino)butyrate]					4.80E+05	2.48E+06	3.05E+07	1.72E+06	3.69E+05
CCCCCCCC/C=C\CCCCCCC1CN(CCOC(=O)CCCN(C)C)CC(CCCCCC(=O)OC(CCCCCCCC)CCCCCCCC)O1 (stereo not drawn) [Compound 94, heptadecan-9-yl (Z)-6-(4-(2-((4-(dimethylamino)butanoyl)oxy)ethyl)-6-(hexadec-7-en-1-yl)morpholin-2-yl)hexanoate]					2.82E+06	1.22E+07	1.41E+06	1.30E+07	1.75E+06
CCCCCCCC/C=C\CCCCCCC1CN(CCOC(=O)CCN(C)C)CC(CCCCCC/C=C\CCCCCCCC)O1 (stereo not drawn) [Compound 95, 2-(2,6-di((Z)-hexadec-7-en-1-yl)morpholino)ethyl 3-(dimethylamino)propanoate]					2.09E+05	2.69E+06	1.49E+05	2.92E+06	7.12E+04
CCCCCCCC/C=C\CCCCCCC1CN(CCCOC(=O)CCN(C)C)CC(CCCCCC/C=C\CCCCCCCC)O1 (stereo not drawn) [Compound 96, 3-(2,6-di((Z)-hexadec-7-en-1-yl)morpholino)propyl 3-(dimethylamino)propanoate]					1.16E+05	6.35E+06	1.49E+05	4.34E+06	1.25E+05
